In PubChem BioAssay (NCI):
“And” between values parts separate entries of the source, which are not always exact repeats. Equal values may be shown once.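 96-well plates; 48 h exposure; 5 concentrations. Endpoints by linear interpolation between flanking doses. Not reached: highest tested concentration assigned. Here, GI50 denotes the concentration required for 50% inhibition of growth. Definition used: TGI = concentration required for complete inhibition of growth.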

Key:
Assay in all cases: NCI-60 cell line screen, 48 h
[1] = test system: OVCAR-4 ovarian
[2] = test system: UO-31 renal
[3] = test system: UACC-62 melanoma
[4] = test system: KM12 colon
[5] = test system: UACC-257 melanoma
[6] = test system: HCT-116 colon
[7] = test system: 786-0 renal
[8] = test system: MALME-3M melanoma
[9] = test system: HCT-15 colon
[10] = test system: SNB-75 CNS

Row | Compound | TGI [1] [µM] | TGI [2] | TGI [3] | TGI [4] | TGI [5] | TGI [6] | TGI [7] | TGI [8] | TGI [9] | TGI [10] | GI50 [1] [µM] | GI50 [2] [µM] | GI50 [3] [µM] | GI50 [4] [µM] | GI50 [5] [µM] | GI50 [6] [µM] | GI50 [10] [µM] | GI50 [8] [µM] | GI50 [9] [µM]
1 | CC(c1ccccc1)N1CCN(C(C)c2ccccc2)CC1 (configuration not stated) | > 100 | > 100 µM | > 100 µM | > 100 µM | > 100 µM | > 100 µM | > 100 µM | > 100 µM | > 100 µM |  |  |  |  |  |  |  |  |  | 
2 | COC(=O)C(=Cc1cc(OC)c(OC)c(OC)c1-c1cc2c(cc1C1(C)OCCS1)OCO2)C(=O)OC (configuration not stated) |  |  | > 100 µM | 79.8 µM | > 100 µM | > 100 µM | > 100 µM | > 100 µM | > 100 µM |  |  |  |  |  |  |  |  |  | 
3 | CCCCCC#CCOC(=O)C(=[N+]=[N-])P(=O)(c1ccccc1)c1ccccc1 |  | > 10 µM | > 10 µM | > 10 µM | > 10 µM | > 10 µM | > 10 µM | > 10 µM | > 10 µM | > 10 µM |  |  |  |  |  |  |  |  | 
4 | S=C1NC2=C(CSC/C2=C\c2cccc(Br)c2)C(c2cccc(Br)c2)N1 (configuration not stated) | > 100 |  | > 100 µM | > 100 µM | > 100 µM | > 100 µM | > 100 µM | > 100 µM | > 100 µM | > 100 µM |  |  |  |  |  |  |  |  | 
5 | COc1ccc(C(=O)/C=C/c2ccc(OCCCOc3ccc(/C=C/C(=O)c4ccc(OC)cc4)cc3)cc2)cc1 | > 100 | > 100 µM | > 100 µM | > 100 µM | > 100 µM | > 100 µM | > 100 µM |  | > 100 µM | > 100 µM |  |  |  |  |  |  |  |  | 
6 | Nc1ncc(-c2ccc3ncnc(Nc4ccc(F)c(Cl)c4)c3c2)cn1 | 2.97 | 3.02 µM | 39.9 µM | > 100 µM | 31.7 µM | 3.73 µM |  | 4.47 µM | > 100 µM | 2.43 µM | 1.32 | 0.5 | 4.99 | 5.01 | 13.4 | 1.89 | 0.544 | 1.29 | 2.54
7 | CCCCCCCCCCCCCCCCNc1cccc2ccccc12 |  | > 100 µM | > 100 µM | > 100 µM | > 100 µM | > 100 µM | > 100 µM | > 100 µM | > 100 µM | > 100 µM |  |  |  |  |  |  |  |  | 
8 | COc1cc2c(cc1OC)C1C3CCCCC3CCN1CC2 (configuration not stated) | > 100 |  | > 100 µM | > 100 µM | > 100 µM | > 100 µM | > 100 µM | > 100 µM | > 100 µM | > 100 µM |  |  |  |  |  |  |  |  | 
9 | COc1cc(O)c2c(c1)C(=O)c1cc3c(c(O)c1C2=O)C(OC1OC(C)C(OC)C(O)C1OC)C(OC)C(C)(O)C3=O (configuration not stated) | 15.5 |  |  | 15.9 µM | 16.2 µM | 14.6 µM | 45.5 µM | 5.85 µM | 15.8 µM | 16 µM |  |  |  |  |  |  |  |  | 
10 | Cc1nc(C)c(C(=O)NNC(=O)C[N+](C)(C)C)cc1C(=O)NNC(=O)C[N+](C)(C)C | > 100 | > 100 µM | > 100 µM | > 100 µM | > 100 µM | > 100 µM | > 100 µM |  | > 100 µM | > 100 µM |  |  |  |  |  |  |  |  | 
11 | O=C1CCC(c2ccccc2)=NN1c1nsc2ccccc12 | > 100 | > 100 µM | > 100 µM | > 100 µM | > 100 µM | > 100 µM |  |  | > 100 µM | > 100 µM |  |  |  |  |  |  |  |  | 
12 | CSc1cc(-c2cccs2)sc1-c1cc(SC)c(-c2sc(-c3sc(-c4cccs4)cc3SC)cc2SC)s1 | > 100 |  | > 100 µM | > 100 µM | > 100 µM | > 100 µM | > 100 µM | > 100 µM | > 100 µM |  |  |  |  |  |  |  |  |  | 
13 | O=C1NC(N2CCOCC2)=N/C1=C\c1ccco1 | > 100 | > 100 µM | > 100 µM | > 100 µM | > 100 µM | > 100 µM | > 100 µM |  | > 100 µM | > 100 µM |  |  |  |  |  |  |  |  | 
14 | COC(=O)C(Cc1ccc2c(c1)CCC2)Cc1ccc2c(c1)CCC2 | > 100 | > 100 µM | > 100 µM | > 100 µM | > 100 µM | > 100 µM | > 100 µM |  | > 100 µM | > 100 µM |  |  |  |  |  |  |  |  | 
15 | CC(C)c1cc2c(c(O)c1O)[C@@]1(C(=O)O)CCCC(C)(C)[C@@H]1CC2 | > 100 | 27.4 µM | 30.8 µM | 27 µM | 33.4 µM | > 100 µM | > 100 µM |  | > 100 µM | 34 µM |  |  |  |  |  |  |  |  | 
16 | O=P(O)(O)C(N=C(Nc1ccccc1)Nc1ccccc1)P(=O)(O)O |  | > 100 µM | > 100 µM | > 100 µM | > 100 µM | > 100 µM | > 100 µM | > 100 µM | > 100 µM |  |  |  |  |  |  |  |  |  | 
17 | C=C(C(=O)OCC)C(=O)OCC |  | > 100 µM | > 100 µM | > 100 µM | > 100 µM | > 100 µM | > 100 µM | > 100 µM | > 100 µM | > 100 µM |  |  |  |  |  |  |  |  | 

Row | Compound | TGI [1] [µM] | TGI [2] | TGI [3] | TGI [4] | TGI [5] | TGI [6] | TGI [7] | TGI [8] | TGI [9] | TGI [10] | GI50 [1] [µM] | GI50 [2] [µM] | GI50 [3] [µM] | GI50 [4] [µM] | GI50 [5] [µM] | GI50 [6] [µM] | GI50 [10] [µM] | GI50 [8] [µM] | GI50 [9] [µM]
18 | COc1cnc2c(c1)C(=O)c1c-2n(CCCN2CCOCC2)c(=O)c2cc(Cl)ccc12 | > 100 | > 100 µM | > 100 µM |  |  | > 100 µM |  | > 100 µM |  | 57.1 µM | > 100 | 0.349 | 0.187 |  |  | 0.167 | 15.1 | > 100 | 
19 | Cc1c(O)nc(-n2[nH]c3c(c2=O)CCCC3)[nH]c1=O | > 100 | > 100 µM | > 100 µM | > 100 µM | > 100 µM | > 100 µM | > 100 µM | > 100 µM | > 100 µM |  |  |  |  |  |  |  |  |  | 
20 | CCOS(C)(=O)=O | > 100 | > 100 µM | > 100 µM | > 100 µM | > 100 µM | > 100 µM | > 100 µM | > 100 µM | > 100 µM |  |  |  |  |  |  |  |  |  | 
21 | CCOC(=O)N1CCC(N[C@@H]2c3cc4c(cc3C(c3cc(OC)c(O)c(OC)c3)C3C(=O)OC[C@@H]32)OCO4)CC1 (some centres not stated) |  | 3.21 µM and 4.14 µM | 2.87 µM and 5.37 µM | 9.2 µM and 7.56 µM | 36.3 µM and > 25 µM | 22.3 µM and 11 µM | 2.94 µM and 4.8 µM | 9.79 µM and 9.69 µM | 2.97 µM and 4.43 µM | 15.2 µM and 24.8 µM |  |  |  |  |  |  |  |  | 
22 | COc1cc2c(cc1OC)C(C(c1ccccc1)c1ccccc1)N(C)CC2 (configuration not stated) | > 100 | > 100 µM | > 100 µM | > 100 µM | > 86.9 µM | > 100 µM |  | 56.2 µM | > 100 µM | 99.5 µM |  |  |  |  |  |  |  |  | 
23 | CCOC(=O)c1c(-c2ccc(O)c(OC)c2)c(C#N)c(=S)n(C2OC(CO)C(O)C(O)C2O)c1-c1ccccc1 (configuration not stated) | > 100 | > 100 µM | > 100 µM | > 100 µM | > 100 µM | > 100 µM | > 100 µM |  | > 100 µM |  |  |  |  |  |  |  |  |  | 
24 | CNc1cc2c(c3ccccc13)C(CCl)CN2C(=O)c1cc2cc(OC)c(OC)c(OC)c2[nH]1 (configuration not stated) |  |  | 0.00209 µM | 0.103 µM |  |  | 0.00346 µM |  |  | 0.00802 µM |  |  |  |  |  |  |  |  | 
25 | O=C1c2cc(-c3ccccc3)cnc2S(=O)(=O)N1c1ccc(Br)cc1 |  | > 100 µM | > 100 µM | > 100 µM | > 100 µM | > 100 µM | > 100 µM | 96.9 µM | > 100 µM | 78.8 µM |  |  |  |  |  |  |  |  | 
26 | COc1cccc(N2C(Cl)C(=O)C2c2c[nH]c3ccccc23)c1 (configuration not stated) | > 100 | > 100 µM | > 100 µM | > 100 µM | > 100 µM | > 100 µM |  | > 100 µM |  |  |  |  |  |  |  |  |  |  | 
27 | O=C1CC2(CCC(O)(c3ccc4ccccc4c3)C(C(=O)c3ccc4ccccc4c3)C2)C(=O)c2ccccc2N1 (configuration not stated) |  | > 100 µM | > 100 µM |  | > 100 µM | > 100 µM |  | > 100 µM |  | > 100 µM |  |  |  |  |  |  |  |  | 
28 | O=C(/C=C/c1ccccc1)Oc1ccc(C(=O)/C=C/c2ccccc2)cc1 | 55.5 | 15.3 µM | 17.7 µM | 15.9 µM | 20.3 µM | 14.6 µM | 13.7 µM |  | 17.3 µM | 19.8 µM |  |  |  |  |  |  |  |  | 
29 | CC(C)SC(=S)Sc1c(Cl)c(Cl)nc(Cl)c1Cl | 28.4 | 21.2 µM | 24.1 µM | 21.4 µM | 9.57 µM | 22.4 µM | 5.54 µM | 30.1 µM | > 34.1 µM |  |  |  |  |  |  |  |  |  | 
30 | CCOc1cc(/C=C2/C(C)=NN(c3cccc(Cl)c3)/C2=N/c2nc3ccccc3s2)ccc1O |  | 52.8 µM |  |  | 61.6 µM | 67.5 µM | > 100 µM |  | 69.8 µM | > 100 µM |  |  |  |  |  |  |  |  | 
31 | COc1cc(OC)cc(C(=O)CC(=O)c2cc(OC)cc(OC)c2)c1 |  | > 100 µM | > 100 µM | > 100 µM | > 100 µM | > 100 µM | > 100 µM | > 100 µM | > 100 µM | > 100 µM |  |  |  |  |  |  |  |  | 
32 | O=C1c2ccccc2C(=O)N1n1c(Cc2ccc([N+](=O)[O-])cc2)n[nH]c1=O |  | > 100 µM | 89.1 µM | > 100 µM | > 100 µM | > 100 µM | > 100 µM | > 100 µM | > 100 µM | > 100 µM |  |  |  |  |  |  |  |  | 
33 | C[N+](C)([O-])CCOc1cc2c(c3ccccc13)-c1ccccc1C2=O | 42.9 | 40 µM | 30.2 µM | 66.5 µM | 16.9 µM | > 68 µM |  | 28.9 µM | > 100 µM | 53.2 µM |  |  |  |  |  |  |  |  | 
34 | O=C1C=C/C(=N\N=C(c2ccccc2)c2ccccc2)O1 | > 10 |  | > 10 µM | > 10 µM | > 10 µM |  | > 10 µM | > 10 µM | > 10 µM | > 10 µM |  |  |  |  |  |  |  |  | 
